Among the data in patent US11572590B2, “Methods for evaluating tumor cell spheroids using 3D microfluidic cell culture device” (Dana-Farber Cancer Institute, Inc., priority 2017, dated 2023) are inhibition values, retold here.

In test [1] the target is off-target kinases (Homo sapiens, UniProt P23458). The experiment in a line: SelectScreen Kinase Profiling, single point inhibition and IC50 for off-target kinases. The class given is biochemical. Conditions: JAK1, ZLYTE, ATP Km app.
Test [2] deals with T1, off-target kinases (Homo sapiens, UniProt Q99683).
T1 sequence (Q99683 1-1374): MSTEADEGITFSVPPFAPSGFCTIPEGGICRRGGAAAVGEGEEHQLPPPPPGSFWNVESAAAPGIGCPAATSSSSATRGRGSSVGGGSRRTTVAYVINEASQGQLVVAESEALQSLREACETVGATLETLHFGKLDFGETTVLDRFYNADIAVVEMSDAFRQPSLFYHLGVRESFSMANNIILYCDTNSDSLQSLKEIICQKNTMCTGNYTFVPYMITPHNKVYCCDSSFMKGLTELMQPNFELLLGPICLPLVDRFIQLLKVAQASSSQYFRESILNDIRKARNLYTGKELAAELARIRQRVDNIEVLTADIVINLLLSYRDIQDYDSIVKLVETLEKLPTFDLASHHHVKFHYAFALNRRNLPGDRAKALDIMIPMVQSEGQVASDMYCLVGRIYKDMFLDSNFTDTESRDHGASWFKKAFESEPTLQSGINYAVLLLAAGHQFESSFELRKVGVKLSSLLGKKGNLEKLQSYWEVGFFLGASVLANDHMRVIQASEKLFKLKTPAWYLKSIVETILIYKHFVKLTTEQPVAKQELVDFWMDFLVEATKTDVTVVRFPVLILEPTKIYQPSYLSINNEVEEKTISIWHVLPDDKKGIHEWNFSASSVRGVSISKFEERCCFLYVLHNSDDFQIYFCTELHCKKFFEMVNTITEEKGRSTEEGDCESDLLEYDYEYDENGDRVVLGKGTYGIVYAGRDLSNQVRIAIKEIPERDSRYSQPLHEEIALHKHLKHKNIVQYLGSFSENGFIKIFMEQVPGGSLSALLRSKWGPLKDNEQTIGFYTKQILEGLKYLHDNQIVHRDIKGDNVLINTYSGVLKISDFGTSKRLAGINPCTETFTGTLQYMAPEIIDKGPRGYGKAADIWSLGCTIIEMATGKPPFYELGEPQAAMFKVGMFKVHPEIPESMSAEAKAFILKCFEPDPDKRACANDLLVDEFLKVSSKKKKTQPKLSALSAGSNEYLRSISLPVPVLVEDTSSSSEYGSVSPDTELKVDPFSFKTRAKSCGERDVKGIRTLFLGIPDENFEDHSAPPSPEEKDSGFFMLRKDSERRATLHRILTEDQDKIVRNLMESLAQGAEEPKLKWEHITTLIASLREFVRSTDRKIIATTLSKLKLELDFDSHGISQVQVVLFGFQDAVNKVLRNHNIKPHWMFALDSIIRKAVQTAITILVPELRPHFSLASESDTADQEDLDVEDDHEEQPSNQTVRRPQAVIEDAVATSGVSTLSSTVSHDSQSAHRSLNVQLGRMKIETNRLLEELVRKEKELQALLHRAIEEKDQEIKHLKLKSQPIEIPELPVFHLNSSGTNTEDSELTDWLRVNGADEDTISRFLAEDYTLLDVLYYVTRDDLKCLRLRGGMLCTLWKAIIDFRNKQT
The test is described as above. Conditions: MAP3K5 (ASK1), LanthaScreen Binding. The class given is biochemical.

Where two headings read alike, the source gives them in different places.

off-target kinases (Homo sapiens, UniProt P23458), sequence (P23458 whole entry): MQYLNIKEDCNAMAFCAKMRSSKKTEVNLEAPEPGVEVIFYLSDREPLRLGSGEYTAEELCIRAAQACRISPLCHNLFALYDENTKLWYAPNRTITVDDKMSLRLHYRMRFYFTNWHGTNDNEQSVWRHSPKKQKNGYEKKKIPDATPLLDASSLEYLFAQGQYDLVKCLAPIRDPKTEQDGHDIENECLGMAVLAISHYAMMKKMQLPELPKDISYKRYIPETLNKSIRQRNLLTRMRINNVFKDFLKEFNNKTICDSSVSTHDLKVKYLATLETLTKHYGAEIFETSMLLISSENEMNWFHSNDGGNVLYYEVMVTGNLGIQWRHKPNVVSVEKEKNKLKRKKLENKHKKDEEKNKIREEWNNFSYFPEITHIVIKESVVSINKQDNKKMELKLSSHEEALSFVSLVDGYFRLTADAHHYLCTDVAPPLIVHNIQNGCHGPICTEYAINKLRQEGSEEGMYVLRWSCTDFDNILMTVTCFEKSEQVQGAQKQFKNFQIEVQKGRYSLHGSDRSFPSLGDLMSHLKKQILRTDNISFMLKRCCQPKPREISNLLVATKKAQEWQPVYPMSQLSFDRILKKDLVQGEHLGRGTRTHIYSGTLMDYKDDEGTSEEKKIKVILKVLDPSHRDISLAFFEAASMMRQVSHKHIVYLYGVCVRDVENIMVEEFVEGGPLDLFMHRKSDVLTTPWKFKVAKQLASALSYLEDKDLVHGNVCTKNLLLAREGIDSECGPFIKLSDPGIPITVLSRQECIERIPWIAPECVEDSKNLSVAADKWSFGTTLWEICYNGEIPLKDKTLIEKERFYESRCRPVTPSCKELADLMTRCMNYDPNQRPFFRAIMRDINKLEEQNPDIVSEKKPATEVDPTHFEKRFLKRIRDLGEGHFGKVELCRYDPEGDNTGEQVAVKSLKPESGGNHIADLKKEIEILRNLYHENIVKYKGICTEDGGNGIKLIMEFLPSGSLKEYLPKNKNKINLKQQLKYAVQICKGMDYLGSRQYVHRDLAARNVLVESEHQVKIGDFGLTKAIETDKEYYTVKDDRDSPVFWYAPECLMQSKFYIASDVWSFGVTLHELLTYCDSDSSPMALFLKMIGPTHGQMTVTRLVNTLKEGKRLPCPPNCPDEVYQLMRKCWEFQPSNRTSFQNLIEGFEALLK

For `N#Cc1cc(-c2ncnc(Nc3ccc(N4CCN(C5COC5)CC4)cc3)n2)ccc1OC1CCOCC1` [Compound 1, 5-(4-((4-(4-(oxetan-3-yl)piperazin-1-yl)phenyl)amino)-1,3,5-triazin-2-yl)-2-((tetrahydro-2H-pyran-4-yl)oxy)benzonitrile], the inhibition is 11% at off-target kinases [1] (read-out: % Inhibition 1); 10% on off-target kinases [1] (read-out: % Inhibition 2); 10% on off-target kinases [1] (read-out: % Inhibition Avg); 7% at off-target kinases [2] (read-out: % Inhibition 1); 8% on off-target kinases [2] (read-out: % Inhibition 2); 7% on off-target kinases [2] (read-out: % Inhibition Avg).
